Measurements: patent US8389523B2, “Substituted quinoxaline and an agrochemical composition thereof” (Kumiai Chemical Industry Co., Ltd., priority 2007, dated 2013)

How the values were obtained:
Type in all cases: in vivo
Design in all cases: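 grade 0 to 5 of growth suppression where 5 is 90% or more and 0 below 10%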
[1] = system: Echinochloa oryzicola Vasing; assay: Herbicidal effects in paddy field soil treatment (Test Example 1); settings: paddy field soil treatment; 1000 g of the active ingredient per hectare; wettable powder added dropwise on water surface; 21st day after treatment
Protocol: (§1) Test for Herbicidal Effects in Paddy Field Soil Treatment
(§2) A 100-cm^2 plastic pot was filled with paddy field soil. After puddling and leveling, seeds of Echinochloa oryzicola Vasing, Monochoria vaginalis (Burm. f.) Presl var. plantaginea (Roxb.) Solms-Laub., and Scirpus juncoides Roxb. var. ohwianus. T. Koyama were sowed, and the soil was waterlogged to a water depth of 3 cm. On the next day, a wettable powder formulation prepared according to Preparation Example 1 was diluted with water, and was added dropwise on the water surface. The amount of application was an amount equivalent to 1000 g of the active ingredient per hectare. Thereafter, the plants were grown in a greenhouse, and on the 21st day after the treatment, the herbicidal effects were investigated according to the criteria described in Table 138.

[2] = system: Scirpus juncoides Roxb. var. ohwianus. T. Koyama; assay: as above; settings: paddy field soil treatment; 1000 g of the active ingredient per hectare; wettable powder added dropwise on water surface; 21st day after treatment
Protocol: as §1, §2

[3] = system: Monochoria vaginalis (Burm. f.) Presl var. plantaginea (Roxb.) Solms-Laub.; assay: as above; settings: paddy field soil treatment; 1000 g of the active ingredient per hectare; wettable powder added dropwise on water surface; 21st day after treatment
Protocol: as §1, §2

[4] = system: Echinochloa crus-galli (L.) P. Beauv. var. crus-galli; assay: Herbicidal effects in upland field foliar treatment (Test Example 3); settings: criteria of Table 138; for herbicidal effect (index) on Echinochloa crus-galli (L.) P. Beauv. var. crus-galli: 1000 g active ingredient per hectare, 14th day after treatment; for herbicidal effects on Echinochloa crus-galli (L.) P. Beauv. var. crus-galli: 1000 g of the active ingredient per hectare, 14th day after the treatment, wettable powder
Protocol: (§3) Test Example 3 Test on Herbicidal Effects in Upland Field Foliar Treatment A 80-cm^2 plastic pot was filled with upland field soil. Seeds of Echinochloa crus-galli (L.) P. Beauv. var. crus-galli, Abutilon theophrasti medicus and Amaranthus viridis L. were sowed, and the plants were grown for two weeks in a greenhouse. A wettable powder formulation prepared according to Preparation Example 1 was diluted with water, and was sprayed with a small sprayer to perform foliar application over the entirety of plants from the upper side, in an amount equivalent to 1000 liters per hectare, such that 1000 g of the active ingredient per hectare was applied. Thereafter, the plants were grown in a greenhouse, and on the 14th day after the treatment, the herbicidal effects were investigated according to the criteria described in the Table 138 shown above.

[5] = system: Abutilon theophrasti medicus; assay: as above; settings: criteria of Table 138; for herbicidal effect (index) on Abutilon theophrasti medicus: 1000 g active ingredient per hectare, 14th day after treatment; for herbicidal effects on Abutilon theophrasti medicus: 1000 g of the active ingredient per hectare, 14th day after the treatment, wettable powder
Protocol: as §3

Amaranthus viridis L. [6] = assay: as above; settings: criteria of Table 138; for herbicidal effect (index) on Amaranthus viridis L.: 1000 g active ingredient per hectare, 14th day after treatment; for herbicidal effects on Amaranthus viridis L.: 1000 g of the active ingredient per hectare, 14th day after the treatment, wettable powder
Protocol: as §3

[7] = system: Abutilon theophrasti medicus; assay: Herbicidal effects in upland field soil treatment (Test Example 2); settings: 1000 g active ingredient per hectare, 21st day after treatment, criteria of Table 138
Protocol: (§4) Test Example 2 Test on Herbicidal Effects in Upland Field Soil Treatment A 80-cm^2 plastic pot was filled with upland field soil. Seeds of Abutilon theophrasti medicus and Amaranthus viridis L. were sowed, and soil was covered. A wettable powder formulation prepared according to Preparation Example 1 was diluted with water, and was uniformly sprayed on the soil surface with a small sprayer, in an amount equivalent to 1000 liters per hectare, such that 1000 g of the active ingredient per hectare was applied. Thereafter, the plants were grown in a greenhouse, and on the 21st day after the treatment, the herbicidal effects were investigated according to the criteria described in the Table 138 shown above.

Amaranthus viridis L. [8] = assay: as above; settings: 1000 g active ingredient per hectare, 21st day after treatment, criteria of Table 138
Protocol: as §4

CS(=O)(=O)CCn1c(=O)c(C(=O)C2=C(O)CCCC2=O)nc2ccccc21 [Compound I-92]
Herbicidal effects index, Echinochloa oryzicola Vasing [1]: 4
Herbicidal effects index, Scirpus juncoides Roxb. var. ohwianus. T. Koyama [2]: 5
Herbicidal effects index, Monochoria vaginalis (Burm. f.) Presl var. plantaginea (Roxb.) Solms-Laub. [3]: 5
herbicidal effect (index) on Echinochloa crus-galli (L.) P. Beauv. var. crus-galli [4]: 5
herbicidal effect (index) on Abutilon theophrasti medicus [5]: 5
herbicidal effect (index) on Amaranthus viridis L. (Amaranthus viridis L. [6]): 5

CN(C)C(=O)Cn1c(=O)c(C(=O)C2=C(O)CCCC2=O)nc2ccccc21 [Compound I-100]
herbicidal effect (index) on Echinochloa crus-galli (L.) P. Beauv. var. crus-galli [4]: 5
herbicidal effect (index) on Abutilon theophrasti medicus [5]: 4
herbicidal effect (index) on Amaranthus viridis L. (Amaranthus viridis L. [6]): 5

O=C1CCCC(O)=C1C(=O)c1nc2cccnc2n(CCc2ccccc2)c1=O [III-235]
Herbicidal effects index, Echinochloa oryzicola Vasing [1]: 5
Herbicidal effects index, Scirpus juncoides Roxb. var. ohwianus. T. Koyama [2]: 5
Herbicidal effects index, Monochoria vaginalis (Burm. f.) Presl var. plantaginea (Roxb.) Solms-Laub. [3]: 5
herbicidal effects on Echinochloa crus-galli (L.) P. Beauv. var. crus-galli [4]: 5
herbicidal effects on Abutilon theophrasti medicus [5]: 5
herbicidal effects on Amaranthus viridis L. (Amaranthus viridis L. [6]): 5

C#CCOc1ccc(-n2c(=O)c(C(=O)C3=C(O)CCCC3=O)nc3ccccc32)cc1 [II-84]
Herbicidal effects index, Echinochloa oryzicola Vasing [1]: 5
Herbicidal effects index, Scirpus juncoides Roxb. var. ohwianus. T. Koyama [2]: 5
Herbicidal effects index, Monochoria vaginalis (Burm. f.) Presl var. plantaginea (Roxb.) Solms-Laub. [3]: 5
herbicidal effects on Echinochloa crus-galli (L.) P. Beauv. var. crus-galli [4]: 4
herbicidal effects on Abutilon theophrasti medicus [5]: 4
herbicidal effects on Amaranthus viridis L. (Amaranthus viridis L. [6]): 5

O=C1CCCC(O)=C1C(=O)c1nc2ccccc2n(Cc2ccccc2Cl)c1=O [I-111]
Herbicidal effects index, Echinochloa oryzicola Vasing [1]: 5
Herbicidal effects index, Scirpus juncoides Roxb. var. ohwianus. T. Koyama [2]: 5
Herbicidal effects index, Monochoria vaginalis (Burm. f.) Presl var. plantaginea (Roxb.) Solms-Laub. [3]: 5
herbicidal effect (index) on Echinochloa crus-galli (L.) P. Beauv. var. crus-galli [4]: 5
herbicidal effect (index) on Abutilon theophrasti medicus [5]: 5
herbicidal effect (index) on Amaranthus viridis L. (Amaranthus viridis L. [6]): 5

CSc1cccc(-n2c(=O)c(C(=O)C3=C(O)CCCC3=O)nc3ccccc32)c1 [II-121]
Herbicidal effects index, Echinochloa oryzicola Vasing [1]: 4
Herbicidal effects index, Scirpus juncoides Roxb. var. ohwianus. T. Koyama [2]: 5
Herbicidal effects index, Monochoria vaginalis (Burm. f.) Presl var. plantaginea (Roxb.) Solms-Laub. [3]: 5
herbicidal effects on Echinochloa crus-galli (L.) P. Beauv. var. crus-galli [4]: 4
herbicidal effects on Abutilon theophrasti medicus [5]: 4
herbicidal effects on Amaranthus viridis L. (Amaranthus viridis L. [6]): 4

O=C1CCCC(O)=C1C(=O)c1nc2ccccc2n(-c2ccc(O)cc2)c1=O [II-51]
Herbicidal effects index, Echinochloa oryzicola Vasing [1]: 5
Herbicidal effects index, Scirpus juncoides Roxb. var. ohwianus. T. Koyama [2]: 5
Herbicidal effects index, Monochoria vaginalis (Burm. f.) Presl var. plantaginea (Roxb.) Solms-Laub. [3]: 5
herbicidal effects on Echinochloa crus-galli (L.) P. Beauv. var. crus-galli [4]: 4
herbicidal effects on Abutilon theophrasti medicus [5]: 5
herbicidal effects on Amaranthus viridis L. (Amaranthus viridis L. [6]): 5

C#CCn1c(=O)c(C(=O)C2=C(O)CCCC2=O)nc2ccccc21 [I-35]
Herbicidal effects index, Echinochloa oryzicola Vasing [1]: 5
Herbicidal effects index, Scirpus juncoides Roxb. var. ohwianus. T. Koyama [2]: 5
Herbicidal effects index, Monochoria vaginalis (Burm. f.) Presl var. plantaginea (Roxb.) Solms-Laub. [3]: 5
herbicidal effect (index) on Echinochloa crus-galli (L.) P. Beauv. var. crus-galli [4]: 4
herbicidal effect (index) on Abutilon theophrasti medicus [5]: 5
herbicidal effect (index) on Amaranthus viridis L. (Amaranthus viridis L. [6]): 5

COc1ccc2nc(C(=O)C3=C(O)CCCC3=O)c(=O)n(-c3cc(F)c(OC)c(F)c3)c2c1 [II-255]
Herbicidal effects index, Echinochloa oryzicola Vasing [1]: 5
Herbicidal effects index, Scirpus juncoides Roxb. var. ohwianus. T. Koyama [2]: 5
Herbicidal effects index, Monochoria vaginalis (Burm. f.) Presl var. plantaginea (Roxb.) Solms-Laub. [3]: 5
herbicidal effects on Echinochloa crus-galli (L.) P. Beauv. var. crus-galli [4]: 5
herbicidal effects on Abutilon theophrasti medicus [5]: 4
herbicidal effects on Amaranthus viridis L. (Amaranthus viridis L. [6]): 5

CCCCCCn1c(=O)c(C(=O)C2=C(O)CCCC2=O)nc2ccccc21 [Compound I-22]
Herbicidal effects index, Echinochloa oryzicola Vasing [1]: 5
Herbicidal effects index, Scirpus juncoides Roxb. var. ohwianus. T. Koyama [2]: 5
Herbicidal effects index, Monochoria vaginalis (Burm. f.) Presl var. plantaginea (Roxb.) Solms-Laub. [3]: 5
herbicidal effect (index) on Echinochloa crus-galli (L.) P. Beauv. var. crus-galli [4]: 4
herbicidal effect (index) on Abutilon theophrasti medicus [5]: 5
herbicidal effect (index) on Amaranthus viridis L. (Amaranthus viridis L. [6]): 5

O=C1CCCC(O)=C1C(=O)c1nc2ccccc2n(Cc2cccc(Cl)c2)c1=O [I-112]
Herbicidal effects index, Echinochloa oryzicola Vasing [1]: 5
Herbicidal effects index, Scirpus juncoides Roxb. var. ohwianus. T. Koyama [2]: 5
Herbicidal effects index, Monochoria vaginalis (Burm. f.) Presl var. plantaginea (Roxb.) Solms-Laub. [3]: 5
herbicidal effect (index) on Echinochloa crus-galli (L.) P. Beauv. var. crus-galli [4]: 4
herbicidal effect (index) on Abutilon theophrasti medicus [5]: 5
herbicidal effect (index) on Amaranthus viridis L. (Amaranthus viridis L. [6]): 5

CSCCn1c(=O)c(C(=O)C2=C(O)CCCC2=O)nc2ccccc21 [Compound I-91]
Herbicidal effects index, Echinochloa oryzicola Vasing [1]: 5
Herbicidal effects index, Scirpus juncoides Roxb. var. ohwianus. T. Koyama [2]: 5
Herbicidal effects index, Monochoria vaginalis (Burm. f.) Presl var. plantaginea (Roxb.) Solms-Laub. [3]: 5
herbicidal effect (index) on Echinochloa crus-galli (L.) P. Beauv. var. crus-galli [4]: 5
herbicidal effect (index) on Abutilon theophrasti medicus [5]: 5
herbicidal effect (index) on Amaranthus viridis L. (Amaranthus viridis L. [6]): 5

COc1ccc(-n2c(=O)c(C(=O)C3=C(O)CCCC3=O)nc3cccc(Cl)c32)cc1 [II-197]
Herbicidal effects index, Echinochloa oryzicola Vasing [1]: 5
Herbicidal effects index, Scirpus juncoides Roxb. var. ohwianus. T. Koyama [2]: 5
Herbicidal effects index, Monochoria vaginalis (Burm. f.) Presl var. plantaginea (Roxb.) Solms-Laub. [3]: 5
herbicidal effects on Echinochloa crus-galli (L.) P. Beauv. var. crus-galli [4]: 5
herbicidal effects on Abutilon theophrasti medicus [5]: 4
herbicidal effects on Amaranthus viridis L. (Amaranthus viridis L. [6]): 5

CN(C)c1ccc(-n2c(=O)c(C(=O)C3=C(O)CCCC3=O)nc3ccccc32)cc1 [II-210]
Herbicidal effects index, Echinochloa oryzicola Vasing [1]: 5
Herbicidal effects index, Scirpus juncoides Roxb. var. ohwianus. T. Koyama [2]: 5
Herbicidal effects index, Monochoria vaginalis (Burm. f.) Presl var. plantaginea (Roxb.) Solms-Laub. [3]: 5
herbicidal effects on Echinochloa crus-galli (L.) P. Beauv. var. crus-galli [4]: 4
herbicidal effects on Abutilon theophrasti medicus [5]: 5
herbicidal effects on Amaranthus viridis L. (Amaranthus viridis L. [6]): 5

CC(C)Oc1cccc(-n2c(=O)c(C(=O)C3=C(O)CCCC3=O)nc3ccccc32)c1 [II-74]
Herbicidal effects index, Echinochloa oryzicola Vasing [1]: 5
Herbicidal effects index, Scirpus juncoides Roxb. var. ohwianus. T. Koyama [2]: 5
Herbicidal effects index, Monochoria vaginalis (Burm. f.) Presl var. plantaginea (Roxb.) Solms-Laub. [3]: 5
herbicidal effects on Echinochloa crus-galli (L.) P. Beauv. var. crus-galli [4]: 3
herbicidal effects on Abutilon theophrasti medicus [5]: 4
herbicidal effects on Amaranthus viridis L. (Amaranthus viridis L. [6]): 4

Cn1c(=O)c(C(=O)C2=C(O)CCCC2=O)nc2ccc(S(C)(=O)=O)cc21 [I-247]
herbicidal effect (index) on Echinochloa crus-galli (L.) P. Beauv. var. crus-galli [4]: 4
herbicidal effect (index) on Abutilon theophrasti medicus [5]: 5
herbicidal effect (index) on Amaranthus viridis L. (Amaranthus viridis L. [6]): 5

O=C1CCCC(O)=C1C(=O)c1nc2ccccc2n(C2CCSC2)c1=O (centres unmarked) [I-136]
herbicidal effect (index) on Echinochloa crus-galli (L.) P. Beauv. var. crus-galli [4]: 4
herbicidal effect (index) on Abutilon theophrasti medicus [5]: 5
herbicidal effect (index) on Amaranthus viridis L. (Amaranthus viridis L. [6]): 5

CSc1ccc2nc(C(=O)C3=C(O)CCCC3=O)c(=O)n(C)c2c1 [I-243]
herbicidal effect (index) on Echinochloa crus-galli (L.) P. Beauv. var. crus-galli [4]: 5
herbicidal effect (index) on Abutilon theophrasti medicus [5]: 5
herbicidal effect (index) on Amaranthus viridis L. (Amaranthus viridis L. [6]): 5

CN(C(=O)OC(C)(C)C)n1c(=O)c(C(=O)C2=C(O)CCCC2=O)nc2ccccc21 [I-278]
Herbicidal effects index, Echinochloa oryzicola Vasing [1]: 4
Herbicidal effects index, Scirpus juncoides Roxb. var. ohwianus. T. Koyama [2]: 5
Herbicidal effects index, Monochoria vaginalis (Burm. f.) Presl var. plantaginea (Roxb.) Solms-Laub. [3]: 5
herbicidal effect (index) on Abutilon theophrasti medicus [7]: 5
herbicidal effect (index) on Amaranthus viridis L. (Amaranthus viridis L. [8]): 5

COc1c(F)cc(-n2c(=O)c(C(=O)C3=C(O)CCCC3=O)nc3c(F)cccc32)cc1F [II-235]
Herbicidal effects index, Echinochloa oryzicola Vasing [1]: 4
Herbicidal effects index, Scirpus juncoides Roxb. var. ohwianus. T. Koyama [2]: 5
Herbicidal effects index, Monochoria vaginalis (Burm. f.) Presl var. plantaginea (Roxb.) Solms-Laub. [3]: 5
herbicidal effect (index) on Abutilon theophrasti medicus [7]: 4
herbicidal effect (index) on Amaranthus viridis L. (Amaranthus viridis L. [8]): 5

COc1ccc2nc(C(=O)C3=C(O)CCCC3=O)c(=O)n(C)c2c1 [I-238]
Herbicidal effects index, Echinochloa oryzicola Vasing [1]: 5
Herbicidal effects index, Scirpus juncoides Roxb. var. ohwianus. T. Koyama [2]: 5
Herbicidal effects index, Monochoria vaginalis (Burm. f.) Presl var. plantaginea (Roxb.) Solms-Laub. [3]: 4
herbicidal effect (index) on Abutilon theophrasti medicus [7]: 5
herbicidal effect (index) on Amaranthus viridis L. (Amaranthus viridis L. [8]): 4

Cc1ccc(-n2c(=O)c(C(=O)C3=C(O)CCCC3=O)nc3ccc(C)cc32)nc1 [I-368]
Herbicidal effects index, Echinochloa oryzicola Vasing [1]: 4
Herbicidal effects index, Scirpus juncoides Roxb. var. ohwianus. T. Koyama [2]: 5
Herbicidal effects index, Monochoria vaginalis (Burm. f.) Presl var. plantaginea (Roxb.) Solms-Laub. [3]: 5
herbicidal effect (index) on Abutilon theophrasti medicus [7]: 5
herbicidal effect (index) on Amaranthus viridis L. (Amaranthus viridis L. [8]): 5
